PubChem BioAssay AID1259407 (Chemical Carcinogenesis Research Information System (CCRIS), 2018)
Activity calls are given as the source filed them. The rule behind the calls is not given here.

Tested on: CCRIS mutagenicity, Ames/micronucleus/aberration tests
Experiment: CCRIS mutagenicity studies
[1] = Test System: AMES SALMONELLA TYPHIMURIUM, Strain/Indicator: TA100, Metabolic Activation: NONE, Method: PREINCUBATION
[2] = Test System: AMES SALMONELLA TYPHIMURIUM, Strain/Indicator: TA100, Metabolic Activation: NONE, Method: STANDARD PLATE
[3] = Test System: AMES SALMONELLA TYPHIMURIUM, Strain/Indicator: TA98, Metabolic Activation: NONE, Method: STANDARD PLATE
[4] = Test System: AMES SALMONELLA TYPHIMURIUM, Strain/Indicator: TA97, Metabolic Activation: NONE, Method: STANDARD PLATE
[5] = Test System: AMES SALMONELLA TYPHIMURIUM, Strain/Indicator: TA102, Metabolic Activation: NONE, Method: STANDARD PLATE

`Clc1ccc(-c2ccccc2)cc1` was tested, and the mutagenic call (End Point: In vitro micronucleus, Test System: Chinese hamster lung fibroblasts (V79 cells), Metabolic Activation: None) was “inactive; negative”, the mutagenic call (End Point: In vivo mutagenicity, Test System: Lung, Species: Rat, Strain/Sex: Big Blue/male, Route: Intraperitoneal) was “inactive; negative (2-fold increase in mutant frequency for 4-chlorobiphenyl and its metab” and the mutagenic call (Test System: Chinese hamster lung fibroblasts, Strain/Indicator: V79 (HPRT)/6-thioguanine, Metabolic Activation: None, Method: Standard plate) was “inactive; negative. study examines mutagenicity of metabolites synthesized in lab and iden”.

With `CC(=O)OC/C=C(\C)CCC=C(C)C` the mutagenic call (End Point: IN VITRO CHROMOSOMAL ABERRATIONS, Test System: CHINESE HAMSTER OVARY CELLS, Metabolic Activation: NONE) was “inactive; negative; precipitation occurred at 100 ug/ml” and the mutagenic call (End Point: IN VITRO CHROMOSOMAL ABERRATIONS, Test System: CHINESE HAMSTER OVARY CELLS, Metabolic Activation: RAT, LIVER, S-9, AROCLOR 1254) was “inactive; negative; precipitation occurred at 150 ug/ml”.

In the case of `CC/C=C/C=C/C=C/C=C/C=C/OCC(O)c1ccccc1` (configuration not stated), the mutagenic call [1] is reported as “active; positive”.

For `Cc1ccc(N(CC2(O)OC[C@@H](O)[C@@H](O)[C@@H]2O)N=O)cc1` (some centres not stated), the mutagenic call (Test System: AMES SALMONELLA TYPHIMURIUM, Strain/Indicator: TA100, Metabolic Activation: NONE, Method: LIQUID INCUBATION) was “active; positive”.

`OC1c2cccnc2C2OC2C1O` (configuration not stated) was tested, and the mutagenic call [2] was “inactive; negative” and the mutagenic call (Test System: AMES SALMONELLA TYPHIMURIUM, Strain/Indicator: TA100, Metabolic Activation: RAT, LIVER, S-9, AROCLOR 1254 (10 OR 20%), Method: STANDARD PLATE) was “inactive; negative”.

With `CCN(CC)c1ccc(N=O)c(O)c1` the mutagenic call (Test System: AMES SALMONELLA TYPHIMURIUM, Strain/Indicator: TA97, Metabolic Activation: HAMSTER, LIVER, S-9, AROCLOR 1254 (10%), Method: PREINCUBATION) was “inactive; negative”, the mutagenic call (Test System: AMES SALMONELLA TYPHIMURIUM, Strain/Indicator: TA97, Metabolic Activation: HAMSTER, LIVER, S-9, AROCLOR 1254 (30%), Method: PREINCUBATION) was “inactive; negative” and the mutagenic call (Test System: AMES SALMONELLA TYPHIMURIUM, Strain/Indicator: TA97, Metabolic Activation: NONE, Method: PREINCUBATION) was “inactive; negative”. For the same molecule, the mutagenic call (Test System: AMES SALMONELLA TYPHIMURIUM, Strain/Indicator: TA97, Metabolic Activation: RAT, LIVER, S-9, AROCLOR 1254 (10%), Method: PREINCUBATION) was “inactive; negative”, the mutagenic call (Test System: AMES SALMONELLA TYPHIMURIUM, Strain/Indicator: TA97, Metabolic Activation: RAT, LIVER, S-9, AROCLOR 1254 (30%), Method: PREINCUBATION) was “inactive; negative” and the mutagenic call (Test System: AMES SALMONELLA TYPHIMURIUM, Strain/Indicator: TA98, Metabolic Activation: HAMSTER, LIVER, S-9, AROCLOR 1254 (5 OR 10%), Method: PREINCUBATION) was “inactive; negative”. For the same molecule, the mutagenic call (Test System: AMES SALMONELLA TYPHIMURIUM, Strain/Indicator: TA98, Metabolic Activation: HAMSTER, LIVER, S-9, AROCLOR 1254 (30%), Method: PREINCUBATION) was “inactive; negative”, the mutagenic call (Test System: AMES SALMONELLA TYPHIMURIUM, Strain/Indicator: TA98, Metabolic Activation: NONE, Method: PREINCUBATION) was “inactive; negative” and the mutagenic call (Test System: AMES SALMONELLA TYPHIMURIUM, Strain/Indicator: TA98, Metabolic Activation: RAT, LIVER, S-9, AROCLOR 1254 (5 OR 10%), Method: PREINCUBATION) was “inactive; negative”. The mutagenic call (Test System: AMES SALMONELLA TYPHIMURIUM, Strain/Indicator: TA98, Metabolic Activation: RAT, LIVER, S-9, AROCLOR 1254 (30%), Method: PREINCUBATION) was “inactive; negative”, the mutagenic call (Test System: AMES SALMONELLA TYPHIMURIUM, Strain/Indicator: TA100, Metabolic Activation: HAMSTER, LIVER, S-9, AROCLOR 1254 (10%), Method: PREINCUBATION) was “inactive; negative” and the mutagenic call (Test System: AMES SALMONELLA TYPHIMURIUM, Strain/Indicator: TA100, Metabolic Activation: HAMSTER, LIVER, S-9, AROCLOR 1254 (30%), Method: PREINCUBATION) was “inactive; negative”. The mutagenic call [1] was “inactive; negative”, the mutagenic call (Test System: AMES SALMONELLA TYPHIMURIUM, Strain/Indicator: TA100, Metabolic Activation: RAT, LIVER, S-9, AROCLOR 1254 (10%), Method: PREINCUBATION) was “inactive; negative” and the mutagenic call (Test System: AMES SALMONELLA TYPHIMURIUM, Strain/Indicator: TA100, Metabolic Activation: RAT, LIVER, S-9, AROCLOR 1254 (30%), Method: PREINCUBATION) was “inactive; negative”. The mutagenic call (Test System: AMES SALMONELLA TYPHIMURIUM, Strain/Indicator: TA1535, Metabolic Activation: HAMSTER, LIVER, S-9, AROCLOR 1254 (10%), Method: PREINCUBATION) was “inactive; negative”, the mutagenic call (Test System: AMES SALMONELLA TYPHIMURIUM, Strain/Indicator: TA1535, Metabolic Activation: HAMSTER, LIVER, S-9, AROCLOR 1254 (30%), Method: PREINCUBATION) was “inactive; negative” and the mutagenic call (Test System: AMES SALMONELLA TYPHIMURIUM, Strain/Indicator: TA1535, Metabolic Activation: NONE, Method: PREINCUBATION) was “inactive; negative”. The mutagenic call (Test System: AMES SALMONELLA TYPHIMURIUM, Strain/Indicator: TA1535, Metabolic Activation: RAT, LIVER, S-9, AROCLOR 1254 (10%), Method: PREINCUBATION) was “inactive; negative”, the mutagenic call (Test System: AMES SALMONELLA TYPHIMURIUM, Strain/Indicator: TA1535, Metabolic Activation: RAT, LIVER, S-9, AROCLOR 1254 (30%), Method: PREINCUBATION) was “inactive; negative” and the mutagenic call (Test System: AMES SALMONELLA TYPHIMURIUM, Strain/Indicator: TA1537, Metabolic Activation: HAMSTER, LIVER, S-9, AROCLOR 1254 (30%), Method: PREINCUBATION) was “inactive; negative”. For the same molecule, the mutagenic call (Test System: AMES SALMONELLA TYPHIMURIUM, Strain/Indicator: TA1537, Metabolic Activation: NONE, Method: PREINCUBATION) was “inactive; negative”, the mutagenic call (Test System: AMES SALMONELLA TYPHIMURIUM, Strain/Indicator: TA1537, Metabolic Activation: RAT, LIVER, S-9, AROCLOR 1254 (30%), Method: PREINCUBATION) was “inactive; negative” and the mutagenic call (Test System: AMES SALMONELLA TYPHIMURIUM, Strain/Indicator: TA1538, Metabolic Activation: HAMSTER, LIVER, S-9, AROCLOR 1254 (10%), Method: PREINCUBATION) was “inactive; negative”. For the same molecule, the mutagenic call (Test System: AMES SALMONELLA TYPHIMURIUM, Strain/Indicator: TA1538, Metabolic Activation: HAMSTER, LIVER, S-9, AROCLOR 1254 (30%), Method: PREINCUBATION) was “inactive; negative”, the mutagenic call (Test System: AMES SALMONELLA TYPHIMURIUM, Strain/Indicator: TA1538, Metabolic Activation: NONE, Method: PREINCUBATION) was “inactive; negative” and the mutagenic call (Test System: AMES SALMONELLA TYPHIMURIUM, Strain/Indicator: TA1538, Metabolic Activation: RAT, LIVER, S-9, AROCLOR 1254 (10 OR 30%), Method: PREINCUBATION) was “inactive; negative”.

For `O=C(Nc1cccc(F)c1)c1csc([N+](=O)[O-])c1`, the mutagenic call [3] was “active; positive” and the mutagenic call [2] was “active; positive”.

In the case of `N/C(=N\O)c1ccc(O)c(O)c1`, the mutagenic call [4] is reported as “inactive; negative”, the mutagenic call (Test System: AMES SALMONELLA TYPHIMURIUM, Strain/Indicator: TA97, Metabolic Activation: RAT, LIVER, S-9, DELOR 103, Method: STANDARD PLATE) is reported as “inactive; negative” and the mutagenic call [3] is reported as “inactive; negative”. The mutagenic call (Test System: AMES SALMONELLA TYPHIMURIUM, Strain/Indicator: TA98, Metabolic Activation: RAT, LIVER, S-9, DELOR 103, Method: STANDARD PLATE) was “active; positive”, the mutagenic call [2] was “inactive; negative” and the mutagenic call (Test System: AMES SALMONELLA TYPHIMURIUM, Strain/Indicator: TA100, Metabolic Activation: RAT, LIVER, S-9, DELOR 103, Method: STANDARD PLATE) was “inactive; negative”. For the same molecule, the mutagenic call [5] was “inactive; negative” and the mutagenic call (Test System: AMES SALMONELLA TYPHIMURIUM, Strain/Indicator: TA102, Metabolic Activation: RAT, LIVER, S-9, DELOR 103, Method: STANDARD PLATE) was “inactive; negative”.

`O=C1OC(O)C(CCl)=C1Cl` (configuration not stated) was tested, and the mutagenic call [4] was “active; positive”, the mutagenic call [3] was “active; positive” and the mutagenic call [5] was “active; positive”. For the same molecule, the mutagenic call (Test System: AMES SALMONELLA TYPHIMURIUM, Strain/Indicator: TA1535, Metabolic Activation: NONE, Method: STANDARD PLATE) was “active; positive”, the mutagenic call (Test System: CHINESE HAMSTER OVARY, Strain/Indicator: CHO-KTL3 (HPRT)/6-THIOGUANINE, Metabolic Activation: NONE) was “active; positive” and the mutagenic call (Test System: UDS RAT HEPATOCYTES, Strain/Indicator: THYMIDINE INCORPORATION, Metabolic Activation: NONE, Method: AUTORADIOGRAPHY) was “active; positive”.
